Data set [1] relates to airway smooth muscle isolated from guinea pigs. The data set is described as follows: Relaxing action to smooth muscle of airway of guinea pigs (histamine-constricted). Format: cell-based. The conditions noted are these: Cavia porcellus; guinea pig airway, constricted with 10^-4 M histamine, cumulative addition; read-out: EC50, concentration showing 50% of the maximum reaction (relaxation). The text has this: […] Action to Smooth Muscle of Airway of Guinea Pigs A guinea pig was killed by draining out the blood, the airway was isolated, and four airway pieces having a width of about 1 cm cut along the cartilage were connected by silk yarn to prepare an airway smooth muscle sample. The sample was hung with a load of about 0.5 g in a 5-mL Magnus vessel filled with a Tyrode solution and aerated with a mixed gas (95% O2 and 5% CO2). […] This was repeatedly treated with 10^-5 M of histamine and, after confirming that the constriction became constant, it was treated with 10^-4 M of histamine. After the maximum constriction reaction of the smooth muscle became constant, the test compound was added thereto starting from a low concentration cumulatively to investigate the relaxing action. […] Pat. […] Pat. No. 4,808,587 to Go et al and in U.S. Pat. No. 5,776,942 to Furukawa et al) and theophylline were used as control agents.

The test system of data set [2] is smooth muscle of blood vessel isolated from rats. The data set is described as follows: Influence on continuous constriction of smooth muscle of blood vessel isolated from rats (noradrenaline-constricted pulmonary main artery). Format: cell-based. The conditions noted are these: rat pulmonary main artery, constricted with 10^-7 M noradrenaline, 37° C.; read-out: EC50, concentration showing 50% of the maximum reaction (relaxation). The protocol:
Influence on Continuous Constriction of […] Smooth Muscle of Rats
The back of the head of a rat was struck to cause a cerebral concussion, carotid arteries on both sides were immediately cut and the pulmonary main artery was isolated. The isolated artery was fully aerated with a mixed gas (95% O2 and 5% CO2), placed in a Krebs-Henselite solution warmed at 37° C., excessive tissues were removed as much as possible and a spiral sample (having a width of about 2 mm and a length of 15 mm) was prepared according to a method of Furchgott, et al. The blood vessel sample was hung with a load of about 0.5 g in a 5-mL Magnus vessel filled with a Krebs-Henseleit solution and aerated with a mixed gas (95% O2 and 5% CO2). After the sample was allowed to stand for 30 minutes to one hour, it was treated with noradrenaline (final concentration: 10^-7 M) and the constricting reaction was amplified via an amplifier for blood pressure using an FD pickup and recorded on a recorder. Noradrenaline (10^-7 M) was repeatedly applied and, after confirming that the constriction became constant, 10^-7 M of noradrenaline was applied. After the maximum shrinking reaction of the smooth muscle became constant, the test compound was added thereto starting from a low concentration cumulatively to investigate the relaxing action. A dose vs. reaction curve was prepared from the isotonic reaction of various concentrations of the test compound and an EC50, a concentration showing 50% of the maximum reaction, was determined.

Another data set has as its system Mice. The data set is described as follows: Influence on general symptoms of mice (modified Irwin's method). Format: in vivo. To be noted: 1000 mg/kg. The method, then:
Influence on General Symptoms of Mice
Mice having no abnormality in their appearance before administration of the test drugs were selected, and five mice were used for each group. Oral administration of the test compound was carried out and, 30 minutes, one hour and two hours thereafter, observations were conducted according to the modified method of Irwin's method for observing the general symptoms of mice. Degree of the symptom was evaluated in terms of (+) and (-) and, when the symptom was apparently severe, it was mentioned as (++). Also, death was observed until the next day of the administration.
1) Suppression of spontaneous motility: When mice were transferred from a home cage to a cage for symptom observation and, if motion of the mice was less than the non-administered group at that time, that was evaluated as (+).
2) Muscle relaxation: When forefeet of mice were hung on a wire stretched horizontally so that the mice were hung by means of the forefeet and, if their reaction at that time for climbing up the wire took a longer time than the non-administered group, that was evaluated as (+).
4) Blepharoptosis: If 1/4 or more was closed as compared with the non-administered group, that was evaluated as (+).
5) Salivation: If salivation was noted a little around the mouth, that was evaluated as (+).
6) Death: If dead case was noted, that was mentioned as such.
5-Amino-1,3-diethyl-1,2,3,4-tetrahydropyrido[2,3-d]-pyrimidine-2,4-dione (Control Compound B; a compound mentioned in Japanese Laid-Open Patent Publication Sho-63/45279 and in U.S. Pat. Nos. 4,808,587 and 5,776,942) was used as a control drug.

A short description of data set [3]: Concentration in blood of guinea pigs. Format: in vivo. To be noted: guinea pig, oral, 30 mg/kg in 1% methyl cellulose, plasma, HPLC. The protocol: Concentration in Blood of Guinea Pigs
Each test substance was orally administered at a dose of 30 mg/kg. It was suspended in 1% methyl cellulose and made into a preparation so as to make the administering dose 5 mL/kg. A group consisted of four animals and blood was collected after 30 minutes, 1 hour, 2 hours, 4 hours, 6 hours and 24 hours from the administration. (A feed was given after collection of the blood after 6 hours). Thus, each about […] (corresponding to four capillary tubes) of blood were collected with intervals using a heparintreated capillary tube and plasma was separated by a hematocrit centrifuge to prepare a plasma sample. A plasma sample of about […] was preserved at -80° C. until the measurement. Methanol ([…]) was added to […] of the plasma followed by mixing, the mixture was centrifuged at 1500×g for ten minutes at […] and the separated supernatant liquid was filtered through a membrane filter of […]. The filtrate was used as a sample for an HPLC, analyzed under the analyzing condition that the column was 100 mm×4.6 mm (inner diameter) of TSK-gel Super ODS, the flow rate was 1.0 mL/minute, the column temperature was 40° C., an injection amount was […], detection was done by UV of 225 nm and the mobile phase was water-acetonitrile (75:25 in terms of % by volume) and the maximum concentration in blood (Cmax), time required for achieving the maximum concentration in blood (Tmax), half life in blood (T1/2) and area under a curve of concentration in blood vs. time (AUC 0-lim) were determined. RS-25344 (Cell Signalling, 7(5), 527 (1995); Mol. Pharmacol., 48, 616 (1995)) and CR-77059 (J. Med. Chem., 34, 624 (1991); J. Pharmacol. Exp. Ther., 272, 3,1313 (1995)) were used as control drugs.

Where only a bound is given, the exact number is not on record here.

Turning to `CCn1c(=O)c2ccc(N)nc2n(-c2cc(OC)cc(OC)c2)c1=O` [Compound 5, 7-amino-3-ethyl-1-(3,5-dimethoxyphenyl)-1,2,3,4-tetrahydropyrido[2,3-d]pyrimidine-2,4-dione], the EC50 in data set [1] stood at 1.7 µM. In data set [2], the EC50 is over 100 µM. For the same compound, in the data set on Mice (mouse, in vivo, po), the Blepharoptosis entry is reported as “(+) × 3”, the Muscle relaxation entry was “(+) × 3” and the “Suppression of spontaneous motility” value is on record as “(+) × 2”. For the same compound, the Death in the data set on Mice (oral, 5 mice per group, until the next day) was 0. Also, the AUC in data set [3] (read-out: AUC 0-lim, area under a curve of concentration in blood vs. time) was determined as 458 µg·h/mL. In addition, the Cmax in data set [3] (read-out: Cmax, maximum concentration in blood) worked out at 30000 ng/mL. In addition, in data set [3] (read-out: T1/2, half life in blood (converted)), the half-life is 12.1 h. For the same compound, in data set [3] (read-out: Tmax, time required for achieving the maximum concentration in blood), the Tmax is 3 h.

The values above are taken from patent US6242452A, “7-aminopyrido[2,3-D]pyrimidine derivatives” (Nippon Zoki Pharmaceutical Co., Ltd., priority 1998, dated 2001).
